SMILES strings stand for the structures.

The subject of assay [1] is MOG-specific IL-17, IFN-γ and TNF-α response of lymph node cells. Briefly: MOG-specific cytokines (ELISA) of restimulated lymph node cells after EAE induction. The class given is in vivo, mice. Particulars: lymph node cells day 5. Here is the method: EAE was induced in C57BL/6 mice by s.c injection with 150 μg of MOG35-55 in CFA supplemented with 4 mg/ml H37 Ra M. tuberculosis on day 0. All mice were injected i.p with PT on days 0 and 2. One group of mice were untreated, the second group were given 100 μg Tri-DAP 6 hours before immunization and a third group were given Tri-DAP (100 μg/mouse) on day 0 in MOG/CFA emulsion and again on days 1, 2 and 4. Mice were sacrificed on day 5 and lymph nodes cells were stimulated with MOG peptide (Myelin oligodendrocyte glycoprotein) (20-100 μg/ml) or as negative and positive controls, medium only or PMA and anti-CD3 respectively. After 72 hours supernatants were removed and analyzed for IL-17, TNF-α (TNF-alpha) and IFN-γ (interferon gamma) by ELISA.
For orientation: In an ELISA, binding on a coated surface is turned into a signal by an enzyme label.

The subject of the next assay is EBI3 mRNA. In words: EBI3 mRNA (real time PCR) in inguinal lymph nodes 72 hours post EAE induction. The assay is classed as in vivo. Particulars: Tri-DAP 100 μg/mouse days 0, 1, 2, vs control mice. Here is the method: EAE was induced in C57BL/6 mice by subcutaneous injection with 150 μg of MOG35-55 in CFA supplemented with 4 mg/ml H37 Ra M. tuberculosis on day 0. All mice were injected i.p with PT on days 0 and 2. One group of mice were untreated and the second group were given Tri-DAP (100 μg/mouse) given on day 0 in MOG/CFA emulsion and again on days 1 and 2. Three mice from each group were sacrificed 72 hours post EAE induction. The inguinal lymph nodes were removed and collected in Trizol. EBI3 mRNA was evaluated by real time PCR normalized to 18S rRNA. Data are shown as fold induction over naïve C57BL/6 inguinal lymph nodes (FIG. 7).
In general terms: Quantitative PCR measures a nucleic acid by following its amplification.

In a further assay the test system is Bone marrow derived DC. In words: EBI3 and IL-27p28 mRNA in bone marrow derived DC stimulated with TLR agonists. The note with it: Tri-DAP 100 μg/ml 24 hours before LPS 10 ng/ml for 6 hours. The assay is classed as cell-based, murine. Here is the method: Bone marrow derived DC (1×10^6 cell/ml) were pretreated with Tri-DAP (100 μg/ml) for 24 hours prior to stimulation with the TLR agonists LPS (10 ng/ml) and CpG (5 μg/ml), and the MOG35-55 peptide (20 μg/ml) or medium alone (control) for 6 hours. EBI3 (FIG. 8 (a)) and IL-27p28 (FIG. 8 (b)) mRNA were evaluated by real time PCR normalized to 18S rRNA. Data are shown as fold induction over DC cultured in medium only.

The subject of the next assay is EAE in SJL mice. Briefly: SJL mouse relapsing-remitting EAE model (PLP/CFA, PT), clinical score. The note with it: TriDAP 100 μg/mouse every 2 days from day 12, vs PBS, mean of 5-6 mice per group. The class given is in vivo. An excerpt:
EAE (experimental autoimmune encephalomyelitis) was induced in SJL mice by immunization with […] (PLP) in complete Freund's adjuvant (CFA) followed by Bordetella pertussis toxin (PT). SJL mice were developed by James Lambert at The Jackson Laboratory in 1955 from three different sources of Swiss Webster mice. The strain is characterized by its susceptibility to experimental autoimmune encephalomyelitis (EAE) for multiple sclerosis research, and therefore provides an improved model (over the MOG (myelin oligodendrocyte glycoprotein) model) for assessing the therapeutic potential of compounds. Mice were treated with PBS (control) or TriDAP (100 μg/mouse) every 2 days from day 12. Clinical scores were assessed daily and body weights were recorded. Disease severity was graded as follows: grade 0: normal, grade 1: limp tail, grade 2: wobbly gait; grade 3: hind limb weakness; grade 4: hind limb paralysis; grade 5: tetraparalysis/death. † indicates control mice were sacrificed due to severity of EAE disease.

For assay [2], the system named is PLP-specific IL-17 and IFN-γ. In words: PLP-specific IL-17 and IFN-γ (ELISA) of restimulated lymph node or spleen cells, relapsing-remitting EAE model. The class given is in vivo. The note with it: SJL mice, TriDAP 100 μg/mouse every 2 days from day 12, day 26, PLP 1-25 μg/ml. Here is the method: EAE was induced in SJL mice by immunization with […] (PLP) in complete Freund's adjuvant (CFA) followed by pertussis toxin (PT). Mice were treated with PBS (control) or TriDAP (100 μg/mouse) every 2 days from day 12. Mice were sacrificed on day 26, and lymph node or spleen cells restimulated in vitro with PLP (1-25 μg/ml). After 3 days, IL-17 and IFNγ production in supernatants were quantified by ELISA.

In the next assay the test system is Spleen cells. In words: TLR agonist induced cytokines (ELISA) of spleen cells from treated mice. The class given is in vivo. Particulars: TriDAP 100 μg/mouse/day i.p. 5 days vs PBS; LPS, CpG or Pam3Csk; 24 hours. Here is the method: Mice treated with either PBS or TriDAP (100 μg/mouse/day i.p.) for 5 days. Spleen cells ([…]; 1×10^6/ml) were stimulated with medium alone (control), or with a Toll-like Receptor agonist selected from the following: the TLR4 agonist LPS (lipopolysaccharide) (100 ng/ml), the TLR9 agonist CpG (5 μg/ml), or the TL2 agonist Pam3Csk (500 ng/ml). Supernatants were collected after 24 hours and cytokine concentrations were quantified by ELISA.

Assay [3] concerns antigen presenting cells (PECs) activating MOG-specific T cells. Briefly: IFN-γ of MOG-specific T cells cultured with irradiated PECs of treated mice as antigen presenting cells. The class given is in vivo. Particulars: TriDAP 100 μg/mouse/day i.p. 5 days vs PBS; MOG 20 μg/ml; 72 hours. Here is the method:
Mice were treated with either PBS or TriDAP (100 μg/mouse/day i.p.) for 5 days. Peritoneal exudate stimulator cells (PECs) were irradiated and used as antigen presenting cells (APC) for MOG-specific T cells. T cells from mice immunized with MOG (Myelin oligodendrocyte glycoprotein) and CFA (1×10^6/ml) were culture with PECs (1×10^6/ml) and MOG (20 μg/ml). Supernatants were collected after 72 hours and IFN-γ concentrations were quantified by ELISA.

Assay [4] has as its system Dendritic cells cultured from human PBMC. Briefly: IL-27 and IL-10 ELISA in dendritic cells cultured from human PBMC. The assay is classed as cell-based. Particulars: 24 hours. Here is the method: Dendritic cells cultured from human PBMC with IL-4 and GM-CSF were stimulated with TriDap (100 μg/ml), LPS (10 or 100 ng/ml), LPS and TriDAP or medium only. Supernatants were collected after 24 hours and IL-27 and IL-10 concentrations were quantified by ELISA. **P<0.01, ***P<0.001, with versus without TriDAP.

Another assay has as its system NF-κB. The note with it: higher than iE-DAP; previously shown; cited from earlier work.
The mark [5] stands for this setting: TriDap 100 μg/ml with LPS 10 or 100 ng/ml.

`C[C@H](N)C(=O)N[C@H](CCC(=O)N[C@@H](CCC[C@@H](N)C(=O)O)C(=O)O)C(=O)O` [Tri-DAP, L-alanyl-γ-D-glutamyl-meso-diaminopimelic acid]: the “MOG-specific T cell responses (IL-17, IFN-γ, TNF-α)” value in [1] (100 μg Tri-DAP 6 hours before immunization, vs control EAE mice) was “significantly reduced”. The “MOG-specific T cell responses (IL-17, IFN-γ, TNF-α)” value in assay [1] (Tri-DAP 100 μg/mouse on days 0, 1, 2 and 4) was “no detectable”. In addition, in the assay on EBI3 mRNA, the “EBI3 gene expression in inguinal lymph nodes” value is “strong fold increase”. In the assay on Bone marrow derived DC, the “LPS induced EBI3 gene expression” value is on record as “enhancement” and the “LPS induced IL-27p28 gene expression” value is recorded as “enhancement”. The clinical scores entry with EAE in SJL mice was “reduction”. Besides, in assay [2] (spleen and lymph node cells), the “PLP-specific IL-17 levels” value is recorded as “on-going reduction”. Moreover, the “PLP-specific IFN-gamma levels” value in assay [2] (spleen cells) is on record as “on-going reduction”. Also, in the assay with Spleen cells, the “IL-10 secreted by spleen cells after re-stimulation with TLR agonists” value was “higher concentrations”, the “IL-27 secreted by spleen cells after re-stimulation with TLR agonists” value was “higher concentrations” and the “TGF-beta secreted by spleen cells after re-stimulation with TLR agonists” value is recorded as “higher concentrations”. For the same molecule, in assay [3], the “IFN-gamma secreted by antigen-specific T cells stimulated with APC of treated mice” value is on record as “less”. In [4] (TriDAP 100 μg/ml alone, without TLR agonist), the “IL-27 expression by human derived dendritic cells” value was “express IL-27”. Further, the “IL-10 production by human dendritic cells” value in assay [4] (TriDap 100 μg/ml alone) is given as “Induces”. Moreover, in [4] (setting [5]), the “IL-27 expression on co-stimulation with a Toll-like Receptor agonist” value is “significant enhanced” and the “TLR-induced IL-10 production by human dendritic cells” value was “Enhances”. Besides, in the assay on NF-κB, the “ability to activate NF-κB relative to iE-DAP” value is 3 fold.

The values above are taken from patent publication US20110294736A1, “COMPOUNDS AND METHODS FOR THE TREATMENT OF AUTOIMMUNE AND INFLAMMATORY DISEASE” (THE PROVOST, FELLOWS AND SCHOLARS OF THE HOLY AND UNDIVIDED …, priority 2008, published 2011).
